The Ki is a dissociation constant, usually derived from enzyme kinetics or from competition with a known ligand.

Some results are limits rather than exact numbers.

Sequence of N-formyl peptide receptor 2 (Homo sapiens) (P25090 whole entry, looked up): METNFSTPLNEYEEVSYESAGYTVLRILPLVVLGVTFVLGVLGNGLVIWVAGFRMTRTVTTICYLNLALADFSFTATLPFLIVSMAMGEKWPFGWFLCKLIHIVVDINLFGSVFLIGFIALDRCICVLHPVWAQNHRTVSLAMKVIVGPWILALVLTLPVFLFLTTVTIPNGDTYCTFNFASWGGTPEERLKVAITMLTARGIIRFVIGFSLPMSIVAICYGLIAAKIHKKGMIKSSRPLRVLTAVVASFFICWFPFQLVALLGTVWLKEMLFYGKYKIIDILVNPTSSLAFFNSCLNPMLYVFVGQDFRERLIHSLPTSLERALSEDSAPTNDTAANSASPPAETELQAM

The test has as its target N-formyl peptide receptor 2 (Homo sapiens) (UniProt P25090). The test can be described thus: human FPR2 ligand displacement potency – cell-based, flow cytometry, Ki from IC50, dose response (AID 766). As to conditions: FPRL1-expressing cells, fluorescent ligand binding competition, binding constant from IC50. For orientation: A flow cytometer gives signals particle by particle.
`CCOC(=O)N1CCN(c2nc(-c3ccc(OC)c(OC)c3)cc(C(F)(F)F)n2)CC1` returned a Ki of more than 30.5 µM. Compound `COc1ccc(-c2cn3cccnc3n2)cc1NC(=O)C1CCCC1` gave a Ki of more than 39.9 µM.

Turning to `COc1ccc(-c2cn3cccnc3n2)cc1NC(=O)C1CC1`, the Ki amounted to 4.1 µM. The compound `COc1ccc(CC(=O)Nc2cc(-c3cn4cccnc4n3)ccc2OC)cc1` had a Ki of 6 µM. In turn, `CCC(=O)Nc1cc(-c2cn3cccnc3n2)ccc1OC` gave a Ki of 6.5 µM. Compound `O=C(N1CCN(c2nc(-c3ccccc3)c3ccccc3n2)CC1)C(F)(F)F` registered a Ki of more than 34.7 µM. Under `COc1ccc(-c2cc(C(F)(F)F)nc(N3CCN(Cc4ccccc4)CC3)n2)cc1OC` stands 10 µM; under `COc1ccc(-c2cc(C(F)(F)F)nc(N3CCN(C(c4ccccc4)c4ccccc4)CC3)n2)cc1OC`, more than 25.1 µM. Under `COc1ccc(-c2cn3cccnc3n2)cc1NC(=O)C(C)C` stands 2.2 µM; under `COc1ccc(-c2cc(C(F)(F)F)nc(N3CCN(c4ccccc4)CC3)n2)cc1OC`, more than 30.2 µM.

The values are drawn from PubChem BioAssay AID766 (NMMLSC, 2007).
